{
  "source": "patent US8119691B2",
  "about": "“Method for treating airway hyper-responsiveness with lipoxin analogs” (National Institutes of Health (NIH), priority 2001, dated 2012)",
  "key": {"[1]": {"tested_on": "OVA sensitized and challenged mice", "experiment": "Leukocytes in bronchoalveolar lavage fluid (Wright-Giemsa stain) of OVA sensitized and challenged mice", "format": "in vivo, mouse (BALB/c)", "conditions": "LXa i.v.", "protocol": "(§1) FIG. 3. […] Bronchoalveolar lavage fluids were obtained from OVA sensitized and challenged mice. Leukocytes in bronchoalveolar lavage fluid were enumerated and identified after Wright-Giemsa stain (a). Mediator profile of (b) specific cytokines (IL-5, IL-12, IL-13, eotaxin and TNFα), and lipid mediators, including PGE2 (c), LTB4 and cysLT's (d) were determined by ELISA's in materials from control animals and those receiving LXa (10 μg, i.v.). Results are expressed as mean±SEM (n≧6, d≧2). *P<0.05 by Student's t-test compared to control animals.\nSensitization and challenge protocols. Five to seven week old male BALB/c (Charles River Laboratories, Wilmington, Mass.) or female hCD11b-hALX FvB transgenic mice were housed in isolation cages under viral antibody-free conditions. […] On day 18, 24 h after the last aerosol challenge, airway responsiveness to intravenous methacholine (33-1000 μg/kg) was measured, bilateral bronchoalveolar lavage (BAL) (2 aliquots of 1 ml PBS plus 0.6 mM EDTA) was performed and tissues (whole blood, lungs, mediastinal lymph nodes and spleen) were harvested for histological analysis. Lung resistance (RL) was measured using a sealed constant mass plethysmograph. […] For mice studied using a whole body plethysmograph to assess airway responsiveness (Buxco), each mouse was placed into a chamber and box pressure/time waveform was analyzed to yield the indicator of airflow obstruction, enhanced pause (Penh). […] Readings were initiated at 3 min and continued for 12 min. Peak and one min average Penh values were determined. Serum total IgE levels were determined by ELISA (Crystal Chem, Chicago, Ill.). […]\nAllergen-initiated respiratory inflammation. Measurement of inflammatory mediators was determined in cell-free BAL fluid (2000 g, 10 min) by sensitive and specific ELISA's, in tandem, for interleukin-5 (IL-5), IL-13, eotaxin, tumor necrosis factor (TNFα) (R&D Systems, Minneapolis, Minn.), LTB4, cysteinyl LT, PGE2 (Cayman Chemical Co., Ann Arbor, Mich.), and LXA4 (Neogen, Lexington, Ky.). […]"}, "[2]": {"tested_on": "OVA sensitized and challenged mice", "experiment": "Mediator profile (cytokines, lipid mediators) in BAL fluid by ELISA, OVA sensitized and challenged mice", "format": "in vivo, mouse (BALB/c)", "conditions": "LXa 10 μg i.v.", "protocol": "as §1\nSensitization and challenge protocols. Five to seven week old male BALB/c (Charles River Laboratories, Wilmington, Mass.) or female hCD11b-hALX FvB transgenic mice were housed in isolation cages under viral antibody-free conditions. After Harvard Medical Area IRB approval (Protocol #02570), mice were sensitized with intraperitoneal injections of ovalbumin (OVA) (Grade III; Sigma Chemical Co., St. Louis, Mo.) (10 μg) plus 1 mg aluminum hydroxide (ALUM) (J.T. Baker Chemical Co.; Phillipsburg, N.J.) as adjuvant in 0.2 ml PBS on days 0 and 7. On days 14, 15, 16 and 17, the mice received 10 μg/mouse of an analog (ref. 16) of LXA4 (15-epi,16-para-fluoro-phenoxy-LXA4-methyl ester, LXa) or PBS with 1.6 mM CaCl2 and 1.6 mM MgCl2 (0.1 ml) by intravenous injection at least 1 h prior to an aerosol challenge containing either PBS or 6% OVA for 25 min/day. The analog was designed to resist rapid enzymatic inactivation and was based on the structure of the aspirin-triggered 15-epi-LXA4 (ref. 16), which carries its carbon 15 position alcohol in the R configuration or epimeric (R) to native LXA4. On day 18, 24 h after the last aerosol challenge, airway responsiveness to intravenous methacholine (33-1000 μg/kg) was measured, bilateral bronchoalveolar lavage (BAL) (2 aliquots of 1 ml PBS plus 0.6 mM EDTA) was performed and tissues (whole blood, lungs, mediastinal lymph nodes and spleen) were harvested for histological analysis. Lung resistance (RL) was measured using a sealed constant mass plethysmograph. The effective dose of methacholine required to increase RL to 200% of control values was defined as the ED200 and used as an index of airway responsiveness (as in refs. 14, 15). For mice studied using a whole body plethysmograph to assess airway responsiveness (Buxco), each mouse was placed into a chamber and box pressure/time waveform was analyzed to yield the indicator of airflow obstruction, enhanced pause (Penh). PBS or methacholine (100 mg/ml) was given by aerosol through an inlet of the chamber for 4.5 min. Readings were initiated at 3 min and continued for 12 min. Peak and one min average Penh values were determined. Serum total IgE levels were determined by ELISA (Crystal Chem, Chicago, Ill.). In situ hybridization of murine ALX was performed using an anti-sense oligonucleotide probe (534 bp in length) corresponding to nucleic acids +581-+1115 (GenBank Accession No. NM008042) with the assistance of the Dana-Farber/Harvard Cancer Center Pathology Core Facility (under the direction of Dr. Massimo Loda).\nAllergen-initiated respiratory inflammation. Measurement of inflammatory mediators was determined in cell-free BAL fluid (2000 g, 10 min) by sensitive and specific ELISA's, in tandem, for interleukin-5 (IL-5), IL-13, eotaxin, tumor necrosis factor (TNFα) (R&D Systems, Minneapolis, Minn.), LTB4, cysteinyl LT, PGE2 (Cayman Chemical Co., Ann Arbor, Mich.), and LXA4 (Neogen, Lexington, Ky.). Cells were resuspended in HBSS, enumerated by hemocytometer, and concentrated onto microscope slides by cytocentrifuge (STATspin) (265 g). Cells were stained with a Wright-Giemsa stain (Sigma Chemical Co.) to determine leukocyte differentials (after counting ≧200 cells)."}, "[3]": {"target": "T1, recombinant cysLT1 receptors (Homo sapiens, UniProt Q9Y271)", "T1 construct": "host or cells: Chinese hamster ovary cells (recombinant expression)", "T1 sequence (Q9Y271 1-337)": "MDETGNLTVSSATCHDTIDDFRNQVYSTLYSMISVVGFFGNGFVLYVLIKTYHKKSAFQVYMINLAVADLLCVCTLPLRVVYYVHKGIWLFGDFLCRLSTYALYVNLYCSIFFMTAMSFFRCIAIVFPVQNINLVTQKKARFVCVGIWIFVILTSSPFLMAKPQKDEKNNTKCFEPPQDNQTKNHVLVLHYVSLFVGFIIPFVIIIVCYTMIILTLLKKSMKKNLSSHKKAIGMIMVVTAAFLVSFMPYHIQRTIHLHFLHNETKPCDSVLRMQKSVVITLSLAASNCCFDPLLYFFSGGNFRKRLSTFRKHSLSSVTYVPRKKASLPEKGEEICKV", "conditions": "CHO cells, in vitro (ref. 12); cited from earlier work"}},
  "note": "Entries after “also recorded” stand apart in the source; their conditions may differ.",
  "data": [
    {"smiles": "COC(=O)CCC[C@H](O)[C@H](O)/C=C/C=C/C=C\\C=C\\[C@H](O)COc1ccc(F)cc1", "note": "[LXa, 15-epi,16-para-fluoro-phenoxy-LXA4-methyl ester]", "values": [
      {"measurement": "BAL eosinophils", "setting": "[1]", "value": "sharply reduced in a dose-dependent fashion"},
      {"measurement": "BAL lymphocytes", "setting": "[1]", "value": "sharply reduced in a dose-dependent fashion"},
      {"measurement": "BAL total leukocytes", "setting": "[1]", "value": "sharply reduced in a dose-dependent fashion"},
      {"measurement": "CysLT's in BAL fluid", "setting": "[2]", "value": "decreased"},
      {"measurement": "IL-5 in BAL fluid", "setting": "[2]", "value": "decreased"},
      {"measurement": "IL-12 in BAL fluid", "setting": "[2]", "value": "not similarly reduced; also recorded: did not significantly alter IL-12 levels"},
      {"measurement": "IL-13 in BAL fluid", "setting": "[2]", "value": "decreased"},
      {"measurement": "PGE2 in BAL fluid", "setting": "[2]", "value": "decreased"},
      {"measurement": "TNF in BAL fluid", "setting": "[2]", "value": "not similarly reduced"},
      {"measurement": "eotaxin in BAL fluid", "setting": "[2]", "value": "decreased"},
      {"measurement": "competition for binding at LTD4 recognition sites and recombinant cysLT1 receptors", "setting": "[3]", "value": "compete for binding with high affinity at LTD4 recognition sites"}
    ]}
  ]
}
